Assay results taken from patent publication US20160101076A1, “Use of Sumoylation Inhibitors for Treating Cancer” (priority 2013, published 2016).

Experiments:
Assay type in all cases: cell-based, human
sKD-C cells = test: Gene/protein expression and CD44+/CD24-/low FACS in sKD-C cells treated with sumoylation inhibitors; conditions: for CD44+/CD24-/low population by FACS analysis / CD44 expression by Western blot: s-KD-C cells, FIG. 6A; for ability to repress CD44 expression with knockdown of TFAP2A: TFAP2A siRNA, Western blot FIG. 6B
Method: (§1) The human breast cancer cell lines (MCF-7, SKBR-3, BT-20, BT-549, MCF-10A) were obtained from American Type Culture Collection. sKD-C cells were subcloned from parental MCF-7 cells with stable knockdown of TFAP2C as described (Cyr et al., 2014). ER<-positive tumors and the basal cancer tumor were obtained from surgical resection specimens. Cell suspensions were prepared with gentle collagenase/hyaluronidase (Stemcells) (Ponti et al., 2005). A new cell line was established from the basal tumor cells, called IOWA-1T (manuscript in preparation).
Total RNA was isolated and analyzed as previously described. Expression values were normalized to the mean of 18S rRNA 4319413E-0803037 (Applied Biosystems) as endogenous control.
(§2) Western blots were performed as previously described (Cyr et al., 2014; Kulak et al., 2013). For immunoprecipitations anti-TFAP2A, anti-GFP antibody (Life Technologies) or IgG (#sc-2025, Santa Cruz Biotechnology) were cross-linked with Dynabeads protein A (Life Technologies). MCF7 protein was incubated with Dynabeads protein A-Abs complex, protein complexes were washed with DPBS (Gibco) with 0.01% Tween (Research Products International Corp.), and eluted with SDS loading buffer.
(§3) Cells were plated ([…]/10 cm2) and treated with 10 μM gingolic or anacardic acid (Sigma) for 2-4 days and collected for qPCR, Western blot and FACS analysis.
(§4) FACS analysis was performed as previously described (Roederer and Hardy, 2001).

MCF-10A cells = test: CD44 expression and stem cell markers in normal breast cell line MCF-10A; conditions: MCF-10A normal breast cell line
Method: as §1, §2, §3, §4

[1] = system: cells derived from a primary basal cancer; test: CD44 Western blot and CD44+/CD24-/low FACS in cells from a primary basal breast cancer; conditions: for CD44 expression by Western blot: cells derived from a primary basal cancer, FIG. 6A; for CD44+/hi/CD24-/low CSC population: cells harvested from primary basal breast tumor refractory to chemotherapy, treated in vitro, FACS FIG. 6A
Method: In addition, cells from a primary basal breast cancer were treated in vitro in parallel. The cancer was from a patient with locally advanced breast cancer that was refractory to conventional chemotherapy. Remarkably, treatment with GA or AA cleared the CD44^+/hi/CD24^−/low CSC population from the cells harvested from the primary tumor (FIG. 6A, last panel). By contrast, GA/AA treatment of MCF-10A cells, a normal breast cell line model, had no effect on CD44 expression and had no effect on the percentage of cells expressing stem cell markers.
as §1, §2, §3, §4

BT-549 cells = test: CD44 Western blot and CD44+/CD24-/low FACS in BT-549 cells; conditions: for ability to repress CD44 expression with knockdown of TFAP2A: BT549 cells, TFAP2A siRNA, Western blot FIG. 6C; for CD44+/CD24-/low population by FACS analysis / CD44 expression by Western blot: BT-549 cells, FIG. 6A, 10 μM, 2-4 days
Method: as §1, §2, §3, §4

BT-20 cells = test: CD44 Western blot and CD44+/CD24-/low FACS in BT-20 cells; conditions: for ability to repress CD44 expression with knockdown of TFAP2A: BT20 cells, TFAP2A siRNA, Western blot FIG. 6C; for CD44+/CD24-/low population by FACS analysis / CD44 expression by Western blot: BT-20 cells, FIG. 6A, 10 μM, 2-4 days
Method: as §1, §2, §3, §4

[2] = sKD-C cells, compared to vehicle treatment, mRNA and protein (FIG. 5E), 10 μM, 2-4 days

Row | Structure (SMILES) | CD44+/CD24-/low population by FACS analysis (sKD-C cells; 10 μM, 2-4 days) | CD44 expression by Western blot (sKD-C cells; 10 μM, 2-4 days) | ability to repress CD44 expression with knockdown of TFAP2A (sKD-C cells; sKD-C cells) | TFAP2C expression (sKD-C cells; sKD-C cells, compared to vehicle treatment, FIG. 5E) | FREM2 expression (sKD-C cells; sKD-C cells, compared to vehicle treatment, FIG. 5E, 10 μM, 2-4 days) | CD44 expression (sKD-C cells; [2]) | ERα expression (sKD-C cells; [2]) | CD44 expression (MCF-10A cells) | percentage of cells expressing stem cell markers (MCF-10A cells) | CD44 expression by Western blot [1] | CD44+/hi/CD24-/low CSC population [1] | ability to repress CD44 expression with knockdown of TFAP2A (BT-549 cells) | CD44+/CD24-/low population by FACS analysis (BT-549 cells) | CD44 expression by Western blot (BT-549 cells) | ability to repress CD44 expression with knockdown of TFAP2A (BT-20 cells) | CD44+/CD24-/low population by FACS analysis (BT-20 cells) | CD44 expression by Western blot (BT-20 cells)
1 | CCCCCC/C=C\CCCCCCCc1cccc(O)c1C(=O)O [GA, (Z)-6-(Pentadec-8-enyl)-2-hydroxybenzoic acid] | significantly reduced | inhibited | completely eliminated | without altering | induced | repressed | induced | no effect | no effect | inhibited | cleared | completely eliminated | significantly reduced | inhibited | completely eliminated | significantly reduced | inhibited
2 | CCCCCCCCCCCCCCCc1cccc(O)c1C(=O)O [AA, Anacardic acid (C15:0)] | significantly reduced | inhibited | completely eliminated |  |  |  |  | no effect | no effect | inhibited | cleared | completely eliminated | significantly reduced | inhibited | completely eliminated | significantly reduced | inhibited
